Data taken from patent publication US20040087629A1, “Tartrate salts of thiazolidinedione derivative” (priority 2003, published 2004).
Read-outs that look alike come from different tables or passages of the source.

Conditions: 1 month, product of Example 4

HPLC assay (final content) (40° C./75% Relative Humidity (RH), open exposure): 97 % initial | HPLC assay (final content) (50° C., closed): 98 % initial
Structure (SMILES): CN(CCOc1ccc(CC2SC(=O)NC2=O)cc1)c1ccccn1.O=C(O)C(O)C(O)C(=O)O [L(+) Tartrate, 5-[4-[2-(N-methyl-N-(2-pyridyl)amino)ethoxy]benzyl]thiazolidine-2,4-dione L-(+)-tartrate]
